According to PubChem BioAssay (NCI):
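Cultured in 96-well plates, cells were exposed to test compound for 48 hours across five concentrations. GI50 = concentration required for 50% inhibition of growth. TGI: concentration producing complete growth inhibition.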

Test system: UACC-62 melanoma
Assay: NCI tumour cell line growth inhibition, 48 h

How did the TGI turn out when `O=C1C=C(c2c(O)ccc3ccccc23)c2cc(O)ccc2C1=O` was run?
Its TGI is 14.2 µM.

Which TGI does the source give for `O=C(c1ccc([N+](=O)[O-])cc1[N+](=O)[O-])N(/N=C/C=C/c1ccccc1)c1nnc(-c2ccccc2)c(-c2ccccc2)n1` here?
Its TGI is 70.4 µM.

With `Cc1cc(C)nc(NS(=O)(=O)c2ccc(Nc3c4ccccc4nc4c(C(=O)N5CCN(CCO)CC5)cccc34)cc2)n1` as the compound, how does the TGI read?
Its TGI is over 100 µM.

How did the TGI turn out when `CC1=C(C(=O)Nc2ccccc2)C(c2ccc(Cl)c(Cl)c2)C(C(=O)Nc2ccccc2)=C(C)N1` was run?
The TGI was 22.6 µM.

With `COc1ccc(NC(=O)CSc2nnc(-c3ccc(NC(C)=O)cc3)o2)cc1` as the compound, how does the TGI read?
Its TGI is 35.2 µM.

With `CC(=O)N/C(=C\c1ccccc1/C=C(\NC(C)=O)c1nc2cc(C)c(C)cc2[nH]1)c1nc2cc(C)c(C)cc2[nH]1` as the compound, how does the TGI read?
The TGI was 31.9 µM.

How did the TGI turn out when `CC12c3ccccc3C(OC=O)(c3ccccc31)C1(C)c3ccccc3C2(OC=O)c2ccccc21` was run?
Its TGI is over 100 µM.

For `CCOC(=O)Cc1csc(Nc2ccccc2[N+](=O)[O-])n1`, which TGI is on record?
Its TGI is over 100 µM.

Test system: SNB-75 CNS
Assay: NCI tumour cell line growth inhibition, 48 h

How did the TGI turn out when `O=Cc1cc2c(cc1-c1cc3c(cc1C=O)OCO3)OCO2` was run?
The TGI was over 100 µM.

`C/C(=N\NC(N)=O)c1sc(-c2nc(C)c(/C(C)=N/NC(N)=O)s2)nc1C` was tested. Which TGI did it give?
The TGI was over 100 µM.

How did the TGI turn out when `CN(C)CCNC(=O)Cc1ccccc1Nc1c(Cl)cccc1Cl` was run?
Its TGI is 27.4 µM.

How did the TGI turn out when `O/N=C1\CCCCC1C(NO)c1ccccc1` (stereo not given) was run?
The TGI was over 100 µM.

For `COC(=O)c1c2c(c(C)[n+]([O-])c1C)C(=O)C(NCc1ccc(Br)cc1)=CC2=O`, which GI50 is on record?
Its GI50 is 2.2 µM.

What about the TGI of the same compound?
Its TGI is 6.79 µM.

For `O=S(=O)(OI(OI(OS(=O)(=O)C(F)(F)F)c1ccccc1)c1ccccc1)C(F)(F)F`, which TGI is on record?
The TGI was over 100 µM.

How did the TGI turn out when `COc1cc(OC)c(OC)cc1/C=N/NC(=O)N/N=C/c1cc(OC)c(OC)cc1OC` was run?
Its TGI is 52.3 µM.

For `FC(F)(F)c1ccc2nc(NCc3ccccc3)c(-c3ccccc3)nc2c1`, which TGI is on record?
The TGI was over 100 µM.

How did the TGI turn out when `Cc1cc2c(cc1C)[n+](=O)cc(C(=O)C/C(=N/NC(=S)NN)C(=O)Nc1cccc(C(F)(F)F)c1)n2[O-]` was run?
Its TGI is over 100 µM.

For `COCOCCC#CCO`, which TGI is on record?
The TGI was over 100 µM.

`COc1cc(C[P+](c2ccccc2)(c2ccccc2)c2ccccc2)cc(OC)c1OC` was tested. Which TGI did it give?
Its TGI is over 100 µM.

`CCCN(CCC)c1c([N+](=O)[O-])cc(C(=O)N(CC)CC)cc1[N+](=O)[O-]` was tested. Which TGI did it give?
Its TGI is 82.7 µM.

Which TGI does the source give for `CN1Nc2ccccc2CC1=O` here?
Its TGI is over 100 µM.

How did the TGI turn out when `CCOc1ccc(OCC(=O)O)c2c1CCCC2=O` was run?
Its TGI is over 100 µM.

Which TGI does the source give for `Nc1c(S(=O)(=O)c2ccc(Cl)cc2)c2nc3ccccc3nc2n2ccnc12` here?
The TGI was 93.2 µM.

Which TGI does the source give for `CCCCCCCC(=O)OCC1OC(n2cc(F)c(=O)[nH]c2=O)C(N)C(OC(=O)CCCCCCC)C1O` (stereo not given) here?
The TGI was 28.4 µM.

How did the TGI turn out when `CCOc1ccc(NC(=O)CC2SC(=Nc3ccc(C)cc3C)NC2=O)cc1` (stereo not given) was run?
The TGI was over 100 µM.

How did the TGI turn out when `Oc1oc(C(=C2N=c3ccccc3=N2)c2ccc(Cl)cc2)c(O)c1-c1ccc(Cl)cc1` was run?
The TGI was 13 µM.

For `Cc1nc2c(N)ncnc2o1`, which TGI is on record?
Its TGI is over 100 µM.

`O=C1C/C(Br)=C\c2ccccc2-c2ccccc21` was tested. Which TGI did it give?
The TGI was 7.65 µM.

`CCCCCCCCCCCC[N+]12CC[N+](CCN)(CC1)CC2` was tested. Which TGI did it give?
The TGI was over 100 µM.

For `O=c1[nH]c(=O)n(C2CC(O)C(CO)O2)cc1OS(=O)(=O)C(F)(F)F` (stereo not given), which TGI is on record?
The TGI was over 100 µM.

For `O=C1C=C(Nc2ccc(Cl)cc2C(=O)c2ccccc2)c2ccccc2C1=O`, which TGI is on record?
Its TGI is over 100 µM.

`CC[C@@H]1NC(C(=O)OC)Cc2c1[nH]c1ccccc21` (stereo not given in full) was tested. Which TGI did it give?
Its TGI is over 100 µM.

With `O=C1C=C(c2c(O)ccc3ccccc23)c2cc(O)ccc2C1=O` as the compound, how does the TGI read?
Its TGI is 42.6 µM.

How did the TGI turn out when `O=C(c1ccc([N+](=O)[O-])cc1[N+](=O)[O-])N(/N=C/C=C/c1ccccc1)c1nnc(-c2ccccc2)c(-c2ccccc2)n1` was run?
The TGI was 86.8 µM.

With `Cc1cc(C)nc(NS(=O)(=O)c2ccc(Nc3c4ccccc4nc4c(C(=O)N5CCN(CCO)CC5)cccc34)cc2)n1` as the compound, how does the TGI read?
The TGI was over 100 µM.

For `CC1=C(C(=O)Nc2ccccc2)C(c2ccc(Cl)c(Cl)c2)C(C(=O)Nc2ccccc2)=C(C)N1`, which TGI is on record?
The TGI was 35 µM.

For `COc1ccc(NC(=O)CSc2nnc(-c3ccc(NC(C)=O)cc3)o2)cc1`, which TGI is on record?
The TGI was over 100 µM.

For `CC(=O)N/C(=C\c1ccccc1/C=C(\NC(C)=O)c1nc2cc(C)c(C)cc2[nH]1)c1nc2cc(C)c(C)cc2[nH]1`, which TGI is on record?
The TGI was over 100 µM.

Which TGI does the source give for `CC12c3ccccc3C(OC=O)(c3ccccc31)C1(C)c3ccccc3C2(OC=O)c2ccccc21` here?
The TGI was over 100 µM.

With `CCOC(=O)Cc1csc(Nc2ccccc2[N+](=O)[O-])n1` as the compound, how does the TGI read?
Its TGI is over 100 µM.

Test system: A549 NSCLC
Assay: NCI tumour cell line growth inhibition, 48 h

With `O=Cc1cc2c(cc1-c1cc3c(cc1C=O)OCO3)OCO2` as the compound, how does the TGI read?
The TGI was over 100 µM.

Which TGI does the source give for `C/C(=N\NC(N)=O)c1sc(-c2nc(C)c(/C(C)=N/NC(N)=O)s2)nc1C` here?
The TGI was over 100 µM.

Which TGI does the source give for `CN(C)CCNC(=O)Cc1ccccc1Nc1c(Cl)cccc1Cl` here?
Its TGI is 36 µM.

For `O/N=C1\CCCCC1C(NO)c1ccccc1` (stereo not given), which TGI is on record?
The TGI was over 100 µM.

`C[N+](C)(C)CC(=O)N/N=C(/Cc1cc(=O)oc2cc(O)ccc12)C(=O)Nc1ccc(Cl)cc1` was tested. Which TGI did it give?
Its TGI is over 100 µM.

Which TGI does the source give for `O=S(=O)(OI(OI(OS(=O)(=O)C(F)(F)F)c1ccccc1)c1ccccc1)C(F)(F)F` here?
Its TGI is over 100 µM.

How did the TGI turn out when `COc1cc(OC)c(OC)cc1/C=N/NC(=O)N/N=C/c1cc(OC)c(OC)cc1OC` was run?
The TGI was over 100 µM.

How did the TGI turn out when `O=C(O)c1ccc(CNCc2ccccc2)cc1` was run?
Its TGI is over 100 µM.

How did the TGI turn out when `FC(F)(F)c1ccc2nc(NCc3ccccc3)c(-c3ccccc3)nc2c1` was run?
The TGI was over 100 µM.

`Cc1cc2c(cc1C)[n+](=O)cc(C(=O)C/C(=N/NC(=S)NN)C(=O)Nc1cccc(C(F)(F)F)c1)n2[O-]` was tested. Which TGI did it give?
The TGI was over 100 µM.

For `COCOCCC#CCO`, which TGI is on record?
Its TGI is over 100 µM.

How did the TGI turn out when `COc1cc(C[P+](c2ccccc2)(c2ccccc2)c2ccccc2)cc(OC)c1OC` was run?
The TGI was over 100 µM.

Which TGI does the source give for `CCCN(CCC)c1c([N+](=O)[O-])cc(C(=O)N(CC)CC)cc1[N+](=O)[O-]` here?
Its TGI is 38.1 µM.

With `COC(=N)c1csc(C2OC(CO)C(O)C2O)n1` (stereo not given) as the compound, how does the TGI read?
Its TGI is over 100 µM.

`CN1Nc2ccccc2CC1=O` was tested. Which TGI did it give?
Its TGI is over 100 µM.

How did the TGI turn out when `CCOc1ccc(OCC(=O)O)c2c1CCCC2=O` was run?
Its TGI is over 100 µM.

`Nc1c(S(=O)(=O)c2ccc(Cl)cc2)c2nc3ccccc3nc2n2ccnc12` was tested. Which TGI did it give?
The TGI was over 100 µM.

For `CCCCCCCC(=O)OCC1OC(n2cc(F)c(=O)[nH]c2=O)C(N)C(OC(=O)CCCCCCC)C1O` (stereo not given), which TGI is on record?
The TGI was 32.3 µM.

For `CCOc1ccc(NC(=O)CC2SC(=Nc3ccc(C)cc3C)NC2=O)cc1` (stereo not given), which TGI is on record?
Its TGI is over 100 µM.

Which TGI does the source give for `Oc1oc(C(=C2N=c3ccccc3=N2)c2ccc(Cl)cc2)c(O)c1-c1ccc(Cl)cc1` here?
Its TGI is over 100 µM.

With `Cc1nc2c(N)ncnc2o1` as the compound, how does the TGI read?
The TGI was over 100 µM.

Which TGI does the source give for `O=C1C/C(Br)=C\c2ccccc2-c2ccccc21` here?
Its TGI is 21.8 µM.

`CCCCCCCCCCCC[N+]12CC[N+](CCN)(CC1)CC2` was tested. Which TGI did it give?
The TGI was over 100 µM.

`O=c1[nH]c(=O)n(C2CC(O)C(CO)O2)cc1OS(=O)(=O)C(F)(F)F` (stereo not given) was tested. Which TGI did it give?
The TGI was over 100 µM.

`O=C1C=C(Nc2ccc(Cl)cc2C(=O)c2ccccc2)c2ccccc2C1=O` was tested. Which TGI did it give?
Its TGI is over 100 µM.

With `CC[C@@H]1NC(C(=O)OC)Cc2c1[nH]c1ccccc21` (stereo not given in full) as the compound, how does the TGI read?
Its TGI is over 100 µM.

For `O=C1C=C(c2c(O)ccc3ccccc23)c2cc(O)ccc2C1=O`, which TGI is on record?
Its TGI is 36.7 µM.

`O=C(c1ccc([N+](=O)[O-])cc1[N+](=O)[O-])N(/N=C/C=C/c1ccccc1)c1nnc(-c2ccccc2)c(-c2ccccc2)n1` was tested. Which TGI did it give?
The TGI was over 100 µM.

How did the TGI turn out when `Cc1cc(C)nc(NS(=O)(=O)c2ccc(Nc3c4ccccc4nc4c(C(=O)N5CCN(CCO)CC5)cccc34)cc2)n1` was run?
Its TGI is over 100 µM.

How did the TGI turn out when `CC1=C(C(=O)Nc2ccccc2)C(c2ccc(Cl)c(Cl)c2)C(C(=O)Nc2ccccc2)=C(C)N1` was run?
The TGI was 25.3 µM.

For `COc1ccc(NC(=O)CSc2nnc(-c3ccc(NC(C)=O)cc3)o2)cc1`, which TGI is on record?
The TGI was 45.3 µM.

With `CC(=O)N/C(=C\c1ccccc1/C=C(\NC(C)=O)c1nc2cc(C)c(C)cc2[nH]1)c1nc2cc(C)c(C)cc2[nH]1` as the compound, how does the TGI read?
Its TGI is over 100 µM.

For `CC12c3ccccc3C(OC=O)(c3ccccc31)C1(C)c3ccccc3C2(OC=O)c2ccccc21`, which TGI is on record?
The TGI was over 100 µM.

Which TGI does the source give for `CCOC(=O)Cc1csc(Nc2ccccc2[N+](=O)[O-])n1` here?
Its TGI is over 100 µM.
